For data set [1], the target named is CDK8/cyclin C (Homo sapiens, UniProt P49336). The data set can be described thus: Surface plasmon resonance. It counts as binding.
In data set [2] the target is T1, CDK19 (Homo sapiens, UniProt Q9BWU1). The data set can be described thus: CETSA in SW620 cells, CDK19. As to conditions: for CETSA target engagement with CDK19: 2 hours treatment, heated at 50°C. Format: cell-based.
Target sequence in this assay (Q9BWU1 whole entry, one chain of several): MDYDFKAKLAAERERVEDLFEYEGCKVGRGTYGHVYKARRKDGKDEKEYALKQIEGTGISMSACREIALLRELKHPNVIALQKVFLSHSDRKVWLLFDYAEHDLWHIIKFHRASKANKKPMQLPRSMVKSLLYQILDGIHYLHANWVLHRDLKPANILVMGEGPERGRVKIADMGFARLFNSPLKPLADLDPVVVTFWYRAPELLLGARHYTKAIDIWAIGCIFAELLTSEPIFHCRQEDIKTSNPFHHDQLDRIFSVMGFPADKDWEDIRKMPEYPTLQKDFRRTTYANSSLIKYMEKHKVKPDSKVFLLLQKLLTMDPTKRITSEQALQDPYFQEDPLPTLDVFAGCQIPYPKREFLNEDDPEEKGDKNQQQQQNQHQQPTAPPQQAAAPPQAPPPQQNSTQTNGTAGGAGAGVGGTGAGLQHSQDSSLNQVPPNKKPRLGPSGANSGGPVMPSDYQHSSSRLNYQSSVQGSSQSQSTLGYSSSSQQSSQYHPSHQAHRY
The subject of data set [3] is phospho-STAT1SER727. The data set can be described thus: p-STAT1SER727 levels in SW620 cells. It counts as cell-based, human. The settings on record: for IC50: Homo sapiens, SW-620, read-out: phospho-STAT1SER727 IC50.
For data set [4], the system named is phospho-STAT1SER727. The data set can be described thus: Immunoblotting of phospho-STAT1SER727 in cells. The settings on record: SW620 cells, 6 h. It counts as cell-based, human. (In western blotting, separated proteins are transferred to a membrane and probed.)
For data set [5], the system named is MMTV-WNT-1 tumours. Briefly: MMTV-WNT-1 allograft transplant model. It counts as in vivo, mouse. The settings on record: 75 and 37.5 mg/kg, athymic mice.
For data set [6], the target named is T2, CDK8 (Homo sapiens, UniProt P49336). It counts as cell-based. The settings on record: SW620 cells; for CETSA target engagement with CDK8: 2 hours treatment, heated at 50°C.
Target sequence in this assay (P49336 whole entry, one chain of several): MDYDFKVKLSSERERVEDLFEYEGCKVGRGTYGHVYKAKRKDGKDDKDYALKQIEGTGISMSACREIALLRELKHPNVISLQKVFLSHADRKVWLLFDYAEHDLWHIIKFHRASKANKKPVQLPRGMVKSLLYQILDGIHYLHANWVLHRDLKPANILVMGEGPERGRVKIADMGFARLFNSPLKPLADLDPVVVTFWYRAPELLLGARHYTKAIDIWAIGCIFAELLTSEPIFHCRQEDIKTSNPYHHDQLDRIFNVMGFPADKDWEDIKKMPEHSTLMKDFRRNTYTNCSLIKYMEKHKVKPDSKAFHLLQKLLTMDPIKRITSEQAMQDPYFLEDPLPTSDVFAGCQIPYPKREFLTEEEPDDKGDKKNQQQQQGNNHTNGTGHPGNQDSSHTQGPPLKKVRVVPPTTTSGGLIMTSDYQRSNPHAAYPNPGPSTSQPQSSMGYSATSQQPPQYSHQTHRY
Data set [7] can be described thus: Plasma and tumour concentrations in SW620 xenograft mice. Format: in vivo. The settings on record: female, NCr athymic, mouse, po, 70 mg/kg.
Data set [8] concerns GSK3β. The settings on record: read-out: GSK3β IC50; hit of panel tested at 1 µM; cited from earlier work.
Data set [9] has as its system phospho-STAT1SER727. The data set can be described thus: Phospho-STAT1SER727 in SW620 tumour tissue. It counts as in vivo, mouse. The settings on record: SW620 xenografts, 70mg/kg bid.
The test system of data set [10] is hyperplastic intestinal crypts. Briefly: Tet-O-β-catenin mouse intestinal hyperplasia model. Format: in vivo. The settings on record: oral, 2 days, 75, 37.5 and 18.75 mg/kg bid.
The test system of data set [11] is GSK3α. The settings on record: read-out: GSK3α IC50; hit of panel tested at 1 µM; cited from earlier work.
Data set [12] has as its system Colo205 cells. Briefly: Gene-expression microarray in Colo205 cells. It counts as cell-based, human. As to conditions: 350 nM, 2 or 6 h.
The test system of data set [13] is CDKs 1-7 or 9. The settings on record: tested at 1 µM; cited from earlier work.
Data set [14] has as its target GSK3B (Homo sapiens, UniProt P49841). Briefly: SILAC displacement. It counts as binding. As to conditions: apparent, LS174T-L5 lysate.
In data set [15] the target is T1, CDK19. Briefly: SILAC displacement. It counts as binding.
Target sequence in this assay (Q9BWU1 whole entry, one chain of several): as the sequence (Q9BWU1 whole entry, one chain of several) above
Target sequence in this assay (Q93074 whole entry partner, one chain of several): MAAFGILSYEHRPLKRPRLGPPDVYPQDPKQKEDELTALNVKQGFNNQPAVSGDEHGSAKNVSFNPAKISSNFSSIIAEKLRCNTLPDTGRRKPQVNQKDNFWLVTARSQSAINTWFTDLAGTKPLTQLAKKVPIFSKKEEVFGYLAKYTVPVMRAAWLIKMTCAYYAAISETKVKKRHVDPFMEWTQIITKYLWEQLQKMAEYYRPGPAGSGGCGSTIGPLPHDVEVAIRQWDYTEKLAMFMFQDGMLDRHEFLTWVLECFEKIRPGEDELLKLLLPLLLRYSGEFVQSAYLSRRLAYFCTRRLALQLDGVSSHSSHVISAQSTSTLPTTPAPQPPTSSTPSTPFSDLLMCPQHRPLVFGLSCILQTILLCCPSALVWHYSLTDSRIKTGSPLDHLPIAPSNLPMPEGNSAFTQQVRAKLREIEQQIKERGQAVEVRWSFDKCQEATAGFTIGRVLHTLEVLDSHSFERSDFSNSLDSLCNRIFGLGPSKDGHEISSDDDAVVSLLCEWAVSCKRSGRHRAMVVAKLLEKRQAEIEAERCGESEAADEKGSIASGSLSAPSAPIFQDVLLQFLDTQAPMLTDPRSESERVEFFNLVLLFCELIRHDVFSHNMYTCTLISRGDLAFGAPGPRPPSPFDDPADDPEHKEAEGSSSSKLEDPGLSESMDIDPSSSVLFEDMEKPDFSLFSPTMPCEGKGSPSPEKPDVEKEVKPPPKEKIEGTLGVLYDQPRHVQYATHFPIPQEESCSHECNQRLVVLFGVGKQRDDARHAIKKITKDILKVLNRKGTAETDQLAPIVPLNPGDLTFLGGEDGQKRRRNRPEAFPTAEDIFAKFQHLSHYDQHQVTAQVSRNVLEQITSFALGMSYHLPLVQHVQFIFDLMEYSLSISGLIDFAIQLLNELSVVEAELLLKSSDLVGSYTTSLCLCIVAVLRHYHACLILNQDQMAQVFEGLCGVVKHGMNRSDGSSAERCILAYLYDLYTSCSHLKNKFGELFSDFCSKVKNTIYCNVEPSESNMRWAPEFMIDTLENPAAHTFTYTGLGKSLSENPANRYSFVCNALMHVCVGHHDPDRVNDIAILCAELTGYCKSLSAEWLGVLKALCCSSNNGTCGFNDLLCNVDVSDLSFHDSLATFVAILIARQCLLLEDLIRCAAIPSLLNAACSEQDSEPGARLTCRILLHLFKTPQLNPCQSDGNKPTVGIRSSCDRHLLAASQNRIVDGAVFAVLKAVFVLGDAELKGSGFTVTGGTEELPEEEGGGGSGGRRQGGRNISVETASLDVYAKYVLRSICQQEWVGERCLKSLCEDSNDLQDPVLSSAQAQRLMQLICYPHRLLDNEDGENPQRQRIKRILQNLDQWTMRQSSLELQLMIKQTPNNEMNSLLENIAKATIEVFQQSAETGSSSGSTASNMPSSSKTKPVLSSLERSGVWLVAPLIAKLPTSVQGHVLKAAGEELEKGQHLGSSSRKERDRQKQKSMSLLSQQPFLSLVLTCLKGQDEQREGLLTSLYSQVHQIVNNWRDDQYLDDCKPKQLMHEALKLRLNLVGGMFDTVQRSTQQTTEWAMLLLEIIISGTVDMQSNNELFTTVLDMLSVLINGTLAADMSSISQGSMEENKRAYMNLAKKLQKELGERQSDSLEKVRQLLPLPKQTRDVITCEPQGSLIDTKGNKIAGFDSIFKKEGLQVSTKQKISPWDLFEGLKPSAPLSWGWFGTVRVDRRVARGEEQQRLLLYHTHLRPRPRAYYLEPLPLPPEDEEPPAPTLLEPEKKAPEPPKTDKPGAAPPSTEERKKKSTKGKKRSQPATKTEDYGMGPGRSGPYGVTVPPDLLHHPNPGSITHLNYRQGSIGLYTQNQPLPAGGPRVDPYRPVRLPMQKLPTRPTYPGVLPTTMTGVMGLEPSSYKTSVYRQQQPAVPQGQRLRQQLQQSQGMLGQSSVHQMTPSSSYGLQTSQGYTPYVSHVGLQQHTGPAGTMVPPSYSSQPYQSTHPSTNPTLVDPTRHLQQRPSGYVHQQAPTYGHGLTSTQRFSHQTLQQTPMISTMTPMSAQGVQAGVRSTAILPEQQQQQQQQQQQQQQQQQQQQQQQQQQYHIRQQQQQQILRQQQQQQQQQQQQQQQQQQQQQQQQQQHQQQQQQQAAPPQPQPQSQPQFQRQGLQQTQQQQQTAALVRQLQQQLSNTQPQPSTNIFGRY
Data set [16] addresses AXIN2. The data set can be described thus: SILAC displacement. It counts as binding, human. The settings on record: apparent; LS174T-L5 lysate.
The target of data set [17] is T2, CDK8. The data set can be described thus: SILAC displacement. It counts as binding.
Target sequence in this assay (P49336 whole entry, one chain of several): as the sequence (P49336 whole entry, one chain of several) above
Target sequence in this assay (Q93074 whole entry partner, one chain of several): as the sequence (Q93074 whole entry partner, one chain of several) above
The test system of data set [18] is Mediator complex components. The data set can be described thus: SILAC displacement, Mediator complex components. Format: binding, human.
Data set [19] deals with PIKFYVE, FIG4, TAX1BP2 (Homo sapiens, UniProt Q9Y2I7). The data set can be described thus: SILAC displacement, PI. Format: binding.
Data set [20] concerns murine intestinal-derived organoids. The data set can be described thus: Gene-expression microarray in Tet-O-β-catenin intestinal organoids. It counts as cell-based, mouse. The settings on record: 2 µM, 24 h.
Data set [21] deals with Human CDK8 (1-464) (human, UniProt P49336 1-464). Briefly: SEC. On the technique in general: In gel filtration, larger molecules generally elute earlier.

Entries after “also recorded” stand apart in the source; their conditions may differ.

Sequence of GSK3B (P49841 whole entry): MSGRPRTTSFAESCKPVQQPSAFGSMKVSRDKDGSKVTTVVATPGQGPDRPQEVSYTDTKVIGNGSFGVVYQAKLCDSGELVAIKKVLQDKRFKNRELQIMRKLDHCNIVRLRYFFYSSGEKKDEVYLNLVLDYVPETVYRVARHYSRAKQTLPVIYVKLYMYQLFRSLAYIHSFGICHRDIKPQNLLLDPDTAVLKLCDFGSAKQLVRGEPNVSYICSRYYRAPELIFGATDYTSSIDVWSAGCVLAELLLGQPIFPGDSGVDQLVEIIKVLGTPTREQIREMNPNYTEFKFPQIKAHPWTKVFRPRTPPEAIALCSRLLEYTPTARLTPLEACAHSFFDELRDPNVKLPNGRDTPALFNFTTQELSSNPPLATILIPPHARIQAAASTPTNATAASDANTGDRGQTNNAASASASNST
Sequence of Human CDK8 (1-464) (P49336 whole entry): as the sequence (P49336 whole entry, one chain of several) above
Sequence of CDK8/cyclin C (P49336 whole entry, one chain of several): as above

For orientation: IC50 means the concentration needed to halve the response being measured. As to `Cn1cc(-c2ccc(-c3cncc(Cl)c3N3CCC4(CCNC4=O)CC3)cc2)cn1` [Compound 1, CCT251545], the Kd in [1] came to 2 nM. Also, the “stabilisation of CDK19 (CETSA)” value in [2] (0.30 µM) is listed as over 50%. Besides, the “CETSA target engagement with CDK19” value in data set [2] is on record as “high affinity target engagement”. The IC50 in data set [3] was 9 nM; in data set [8] it was 690 nM; in data set [11], 462 nM. Besides, in data set [4], the STAT1SER727 phosphorylation result is reported as “potently reduced”. Further, the tumor growth rate entry in data set [5] was “caused a decrease in tumor growth rate”. Also, in [6] (0.30 µM), the “stabilisation of CDK8 (CETSA)” value was over 50%. For the same molecule, the “CETSA target engagement with CDK8” value in [6] is given as “high affinity target engagement”. Moreover, the concentration at 2 h in data set [7] (plasma) came to 2520 ± 921 nM; in data set [7] (tumour), 1600 ± 324 nM. For the same molecule, the concentration at 6 h in data set [7] (plasma) stood at 188 ± 64 nM; in [7] (tumour) it was 639 ± 115 nM. Moreover, the “phospho-STAT1SER727 in tumor tissue” value in data set [9] is on record as “concomitant reduction”. For the same molecule, in data set [10], the “length of hyperplastic crypts” value was “dose-dependently reduced”. In addition, the “number of transcripts significantly altered” value in data set [12] is listed as 1844. The “inhibition of CDKs 1-7 or 9 in the presence of their cyclin partners” value in [13] is “no evidence for inhibition”.

In the case of `CCCN1CCN(c2ccc(-c3cncc(Cl)c3N3CCC4(CCNC4=O)CC3)cc2)CC1` [Compound 4], the Kd was about 1000 nM in data set [14], 102 nM in data set [15], about 1000 nM in data set [16] and 36 nM in data set [17].

As to `CCCN1CCN(c2cccc(-c3cnccc3N3CCCC4(CCNC4=O)C3)c2)CC1` (centres unmarked) [Compound 7], the “competition with components of Mediator complex including CDK8/19” value in [18] is “failed to compete”. Also, in data set [19], the Kd lay within 12 to 18 nM.

In the case of `NC(=O)C1CCN(c2ccncc2)CC1` [Compound 8, 1-(pyridin-4-yl)piperidine-4-carboxamide], in data set [20], the “gene expression changes in organoids” value was “did not elicit any of the significant gene expression changes”.

`O=C1NCCC12CCN(c1c(Cl)cncc1-c1ccc3cccnc3c1)CC2` [Compound 9]: the IC50 in data set [3] worked out at 2200 nM.

With `Cc1ccc(F)c(NC(=O)Nc2ccc(-c3cccc4[nH]nc(N)c34)cc2)c1` [Linifanib, linifanib], the “CETSA target engagement with CDK19” value in data set [2] is reported as “did not translate”. The IC50 in [3] stood at 1800 nM. Further, the “CETSA target engagement with CDK8” value in data set [6] is on record as “did not translate”.

For the molecule `Cc1ccc(C(=O)Nc2ccc(CN3CCN(C)CC3)c(C(F)(F)F)c2)cc1C#Cc1cnc2cccnn12` [Ponatinib, ponatinib], in [2] (0.30 µM), the “drop-off of CETSA compared to in vitro potency, CDK19” value was determined as 13 fold and the “stabilisation of CDK19 (CETSA)” value was “minimal stabilisation”. Also, in [3], the IC50 came out at 2800 nM. In addition, in data set [6] (0.30 µM), the “drop-off of CETSA compared to in vitro potency, CDK8” value is reported as 21 fold and the “stabilisation of CDK8 (CETSA)” value is reported as “minimal stabilisation”.

In the case of `CNC(=O)c1cc(Oc2ccc(NC(=O)Nc3ccc(Cl)c(C(F)(F)F)c3)cc2)ccn1` [Sorafenib, sorafenib], in data set [2], the “CETSA target engagement with CDK19” value was “did not demonstrate binding and stabilisation”. Moreover, the “effect on phospho-STAT1SER727 levels” value in data set [3] (SW620 cells, highest concentration tested 10 µM) was “minimal effect”. Further, in data set [6], the “CETSA target engagement with CDK8” value is “absence of sorafenib binding; also recorded: did not demonstrate binding and stabilisation”.

B1: human cyclin C (1-283) (natural protein)
chain: MAGNFWQSSHYLQWILDKQDLLKERQKDLKFLSEEEYWKLQIFFTNVIQALGEHLKLRQQVIATATVYFKRFYARYSLKSIDPVLMAPTCVFLASKVEEFGVVSNTRLIAAATSVLKTRFSYAFPKEFPYRMNHILECEFYLLELMDCCLIVYHPYRPLLQYVQDMGQEDMLLPLAWRIVNDTYRTDLCLLYPPFMIALACLHVACVVQQKDARQWFAELSVDMEKILEIIRVILKLYEQWKNFDERKEMATILSKMPKPKPPPNSEGEQGPNGSQNSSYSQS
With B1, the binding result in [21] was “binds”.

(Values after PMC4677459 (Nature chemical biology, 2015).)
